In ChEMBL document CHEMBL3885881, “DrugMatrix”:

Organism: Rattus norvegicus
Experiment: DrugMatrix - Regimen: Daily Repeat
Format: toxicity, organism-based, Sprague-Dawley
Parameters: regimen Daily Repeat, gender Male, age 6-8 weeks
Conditions: in vivo, po, route oral GAVAGE; for ABSOLUTE EOSINOPHIL / ABSOLUTE LYMPHOCYTE / ABSOLUTE MONOCYTE / ABSOLUTE SEGMENTED NEUTROPHIL / EOSINOPHIL / ERYTHROCYTE COUNT / HEMATOCRIT / HEMOGLOBIN / LEUKOCYTE COUNT / LYMPHOCYTE / MEAN CORPUSCULAR HEMOGLOBIN / MEAN CORPUSCULAR HEMOGLOBIN CONCENTRATION / MEAN CORPUSCULAR VOLUME / MONOCYTE / NEUTROPHIL / NUCLEATED RED BLOOD CELLS / PLATELET COUNT / ABSOLUTE BASOPHIL / BASOPHIL: tissue Blood; for ALANINE AMINOTRANSFERASE / ALBUMIN / ALKALINE PHOSPHATASE / ASPARTATE AMINOTRANSFERASE / BLOOD UREA NITROGEN / CARBON DIOXIDE / CHLORIDE / CHOLESTEROL / CREATINE PHOSPHOKINASE / CREATININE / GLUCOSE / LACTATE DEHYDROGENASE / LIPASE / PHOSPHORUS / POTASSIUM / SODIUM / TOTAL PROTEIN / URIC ACID / TOTAL BILIRUBIN: tissue Plasma
[1] = 0 mg/kg, 72 h, dose level Control, time 3 day, vehicle 100 % SALINE
[2] = 0 mg/kg, 72 h, dose level Control, time 3 day, vehicle 100 % WATER
[3] = 0 mg/kg, 120 h, dose level Control, time 5 day, vehicle 100 % SALINE
[4] = 0 mg/kg, 120 h, dose level Control, time 5 day, vehicle 100 % WATER
[5] = 300 mg/kg, 72 h, dose level M2, time 3 day, vehicle 100 % SALINE
[6] = 300 mg/kg, 120 h, dose level M2, time 5 day, vehicle 100 % SALINE

## CCCc1nn(C)c2c(=O)[nH]c(-c3cc(S(=O)(=O)N4CCN(C)CC4)ccc3OCC)nc12
[1]
  ABSOLUTE EOSINOPHIL: 37 CELLS/uL
  ABSOLUTE LYMPHOCYTE: 12359.33 CELLS/uL
  ABSOLUTE MONOCYTE: 122.67 CELLS/uL
  ABSOLUTE SEGMENTED NEUTROPHIL: 847.67 CELLS/uL
  EOSINOPHIL: 0.33%
  ERYTHROCYTE COUNT: 5.75 x10E6/uL
  HEMATOCRIT: 36.08%
  HEMOGLOBIN: 14.07 G/DL
  LEUKOCYTE COUNT: 13.37 x10E3/uL
  LYMPHOCYTE: 92.5%
  MEAN CORPUSCULAR HEMOGLOBIN: 24.47 pg
  MEAN CORPUSCULAR HEMOGLOBIN CONCENTRATION: 38.98 G/DL
  MEAN CORPUSCULAR VOLUME: 62.78 fL
  MONOCYTE: 1%
  NEUTROPHIL: 6.17%
  NUCLEATED RED BLOOD CELLS: 0.17 /100WBC
  PLATELET COUNT: 1202.17 x10E3/uL
  ALANINE AMINOTRANSFERASE: 50.67 u/L
  ALBUMIN: 4.13 G/DL
  ALKALINE PHOSPHATASE: 356.33 u/L
  ASPARTATE AMINOTRANSFERASE: 78.17 u/L
  BLOOD UREA NITROGEN: 14.17 mg/dL
  CARBON DIOXIDE: 31.33 mmol/L
  CHLORIDE: 98.5 MEQ/L
  CHOLESTEROL: 76.5 mg/dL
  CREATINE PHOSPHOKINASE: 248.33 u/L
  CREATININE: 0.2 mg/dL
  GLUCOSE: 144 mg/dL
  LACTATE DEHYDROGENASE: 107 u/L
  LIPASE: 9.83 u/L
  PHOSPHORUS: 12.8 mg/dL
  POTASSIUM: 6.75 MEQ/L
  SODIUM: 142 MEQ/L
  TOTAL PROTEIN: 5.98 G/DL
  URIC ACID: 1.42 mg/dL
[2]
  ABSOLUTE BASOPHIL: 0 CELLS/uL
  ABSOLUTE EOSINOPHIL: 0 CELLS/uL
  ABSOLUTE LYMPHOCYTE: 7802.17 CELLS/uL
  ABSOLUTE MONOCYTE: 13.5 CELLS/uL
  ABSOLUTE SEGMENTED NEUTROPHIL: 617.67 CELLS/uL
  BASOPHIL: 0%
  EOSINOPHIL: 0%
  ERYTHROCYTE COUNT: 5.35 x10E6/uL
  HEMATOCRIT: 33.02%
  HEMOGLOBIN: 12.88 G/DL
  LEUKOCYTE COUNT: 8.43 x10E3/uL
  LYMPHOCYTE: 92.67%
  MEAN CORPUSCULAR HEMOGLOBIN: 24.12 pg
  MEAN CORPUSCULAR HEMOGLOBIN CONCENTRATION: 39.03 G/DL
  MEAN CORPUSCULAR VOLUME: 61.8 fL
  MONOCYTE: 0.17%
  NEUTROPHIL: 7.17%
  NUCLEATED RED BLOOD CELLS: 0 /100WBC
  PLATELET COUNT: 1124.83 x10E3/uL
  ALANINE AMINOTRANSFERASE: 54.17 u/L
  ALBUMIN: 4.07 G/DL
  ALKALINE PHOSPHATASE: 383.83 u/L
  ASPARTATE AMINOTRANSFERASE: 82.17 u/L
  BLOOD UREA NITROGEN: 13.67 mg/dL
  CARBON DIOXIDE: 31 mmol/L
  CHLORIDE: 100.83 MEQ/L
  CHOLESTEROL: 65.17 mg/dL
  CREATINE PHOSPHOKINASE: 228.33 u/L
  CREATININE: 0.12 mg/dL
  GLUCOSE: 148 mg/dL
  LACTATE DEHYDROGENASE: 97.83 u/L
  LIPASE: 9.17 u/L
  PHOSPHORUS: 9.75 mg/dL
  POTASSIUM: 5.85 MEQ/L
  SODIUM: 147.02 MEQ/L
  TOTAL BILIRUBIN: 0.18 mg/dL
  TOTAL PROTEIN: 6.1 G/DL
  URIC ACID: 0.5 mg/dL
[3]
  ABSOLUTE LYMPHOCYTE: 8681.17 CELLS/uL
  ABSOLUTE MONOCYTE: 79.83 CELLS/uL
  ABSOLUTE SEGMENTED NEUTROPHIL: 689 CELLS/uL
  HEMATOCRIT: 33.55%
  HEMOGLOBIN: 13.1 G/DL
  LEUKOCYTE COUNT: 9.45 x10E3/uL
  LYMPHOCYTE: 92.33%
  MEAN CORPUSCULAR HEMOGLOBIN: 23.92 pg
  MEAN CORPUSCULAR HEMOGLOBIN CONCENTRATION: 39.07 G/DL
  MEAN CORPUSCULAR VOLUME: 61.22 fL
  MONOCYTE: 0.67%
  NEUTROPHIL: 7%
  PLATELET COUNT: 1001.17 x10E3/uL
  ALANINE AMINOTRANSFERASE: 49.33 u/L
  ALKALINE PHOSPHATASE: 300.33 u/L
  ASPARTATE AMINOTRANSFERASE: 83.5 u/L
  BLOOD UREA NITROGEN: 16 mg/dL
  CARBON DIOXIDE: 29.67 mmol/L
  CHLORIDE: 100.5 MEQ/L
  CHOLESTEROL: 74.33 mg/dL
  CREATINE PHOSPHOKINASE: 489.67 u/L
  CREATININE: 0.35 mg/dL
  GLUCOSE: 151 mg/dL
  LACTATE DEHYDROGENASE: 133.67 u/L
  LIPASE: 11.17 u/L
  PHOSPHORUS: 10.88 mg/dL
  POTASSIUM: 5.5 MEQ/L
  SODIUM: 145.7 MEQ/L
  TOTAL BILIRUBIN: 0.2 mg/dL
  URIC ACID: 0.68 mg/dL
[4]
  ABSOLUTE BASOPHIL: 0 CELLS/uL
  ABSOLUTE EOSINOPHIL: 0 CELLS/uL
  ABSOLUTE LYMPHOCYTE: 10538 CELLS/uL
  ABSOLUTE MONOCYTE: 15.83 CELLS/uL
  ABSOLUTE SEGMENTED NEUTROPHIL: 762.83 CELLS/uL
  BASOPHIL: 0%
  EOSINOPHIL: 0%
  ERYTHROCYTE COUNT: 5.49 x10E6/uL
  HEMATOCRIT: 34.63%
  HEMOGLOBIN: 13.72 G/DL
  LEUKOCYTE COUNT: 11.32 x10E3/uL
  LYMPHOCYTE: 92.67%
  MEAN CORPUSCULAR HEMOGLOBIN: 24.97 pg
  MEAN CORPUSCULAR HEMOGLOBIN CONCENTRATION: 39.57 G/DL
  MEAN CORPUSCULAR VOLUME: 63.05 fL
  MONOCYTE: 0.17%
  NEUTROPHIL: 7.17%
  NUCLEATED RED BLOOD CELLS: 0.17 /100WBC
  PLATELET COUNT: 802 x10E3/uL
  ALANINE AMINOTRANSFERASE: 50.5 u/L
  ALBUMIN: 4.07 G/DL
  ALKALINE PHOSPHATASE: 336.83 u/L
  ASPARTATE AMINOTRANSFERASE: 81 u/L
  BLOOD UREA NITROGEN: 14.17 mg/dL
  CARBON DIOXIDE: 32 mmol/L
  CHLORIDE: 98.33 MEQ/L
  CHOLESTEROL: 69.17 mg/dL
  CREATINE PHOSPHOKINASE: 253.33 u/L
  CREATININE: 0.13 mg/dL
  GLUCOSE: 153.67 mg/dL
  LACTATE DEHYDROGENASE: 157 u/L
  LIPASE: 9 u/L
  PHOSPHORUS: 10.78 mg/dL
  POTASSIUM: 6.11 MEQ/L
  SODIUM: 144.57 MEQ/L
  TOTAL BILIRUBIN: 0.15 mg/dL
  TOTAL PROTEIN: 6.05 G/DL
  URIC ACID: 0.73 mg/dL
[5]
  ABSOLUTE BASOPHIL: 0 CELLS/uL
  ABSOLUTE EOSINOPHIL: 110.67 CELLS/uL
  ABSOLUTE LYMPHOCYTE: 12663.33 CELLS/uL
  ABSOLUTE MONOCYTE: 138 CELLS/uL
  ABSOLUTE SEGMENTED NEUTROPHIL: 821.33 CELLS/uL
  BASOPHIL: 0%
  EOSINOPHIL: 0.67%
  ERYTHROCYTE COUNT: 5.21 x10E6/uL
  HEMATOCRIT: 34.03%
  HEMOGLOBIN: 13.07 G/DL
  LEUKOCYTE COUNT: 13.73 x10E3/uL
  LYMPHOCYTE: 92.67%
  MEAN CORPUSCULAR HEMOGLOBIN: 25.03 pg
  MEAN CORPUSCULAR HEMOGLOBIN CONCENTRATION: 38.43 G/DL
  MEAN CORPUSCULAR VOLUME: 65.3 fL
  MONOCYTE: 0.67%
  NEUTROPHIL: 6%
  NUCLEATED RED BLOOD CELLS: 0.33 /100WBC
  PLATELET COUNT: 1148.67 x10E3/uL
  ALANINE AMINOTRANSFERASE: 45.67 u/L
  ALBUMIN: 3.8 G/DL
  ALKALINE PHOSPHATASE: 335 u/L
  ASPARTATE AMINOTRANSFERASE: 71.67 u/L
  BLOOD UREA NITROGEN: 13.33 mg/dL
  CARBON DIOXIDE: 27.67 mmol/L
  CHLORIDE: 100 MEQ/L
  CHOLESTEROL: 70.67 mg/dL
  CREATINE PHOSPHOKINASE: 284 u/L
  CREATININE: 0.2 mg/dL
  GLUCOSE: 154 mg/dL
  LACTATE DEHYDROGENASE: 142.33 u/L
  LIPASE: 12.33 u/L
  PHOSPHORUS: 11.37 mg/dL
  POTASSIUM: 5.84 MEQ/L
  SODIUM: 144.75 MEQ/L
  TOTAL BILIRUBIN: 0.13 mg/dL
  TOTAL PROTEIN: 5.13 G/DL
  URIC ACID: 0.97 mg/dL
[6]
  ABSOLUTE BASOPHIL: 0 CELLS/uL
  ABSOLUTE EOSINOPHIL: 0 CELLS/uL
  ABSOLUTE LYMPHOCYTE: 10278 CELLS/uL
  ABSOLUTE MONOCYTE: 0 CELLS/uL
  ABSOLUTE SEGMENTED NEUTROPHIL: 955.33 CELLS/uL
